Measured values as given in patent US7033593B2, “Immunogen comprising an HIV envelope protein, a ligand and H2 peptide” (priority 2000, dated 2006).
“Also recorded” adds a separate entry of the source. Read-outs that look alike come from different tables or passages of the source.

Columns and labels:
[1] = tested on: gp41-gp120-sCD4 complex (ADA gp41, 89.6 gp120); assay: SPR binding of DP178 to gp41-gp120 and gp41-gp120-sCD4 complexes; parameters: species or system HIV; settings: DP178 50 μg/ml
Description: FIGS. 17A and 17B show induction of HR-2 peptide binding to gp120-gp41 complex. […] Soluble 89.6 gp120 (100 μg/ml) or a gp120-CD4 mixture (gp120 pre-incubated with 0.3 mg/ml of CD4 for 30 min) was injected at 5 μl/min for 10 min over a sensor surface immobilized with ADA gp41. At the end of the injections, wash buffer (PBS) was allowed to flow until the surface was stable with no baseline drift. Roughly 300 RU of gp120 and 850 RU of gp120-CD4 formed stable complexes with the immobilized gp41 surface. […] Thus both surfaces were stable and had equivalent amount of associated gp120 or gp120-CD4.
In the preparation of HIV 89.6 gp140 envelope, there is uncleaved gp140, and cleaved gp140 components of gp120 and gp41. Thus, it is possible that HR-2 peptide could be induced to bind uncleaved gp140 and/or could be induced to bind to cleaved gp120 and gp41.

HIV-1 89.6 gp120 = HIV-1 89.6 gp120 (Human immunodeficiency virus type 1 group M subtype B, UniProt Q73372); assay type: binding; settings: absence of sCD4 or mAb A32, blot 29A lanes 3 and 4
HIV 89.6 gp140 = HIV 89.6 gp140 (Human immunodeficiency virus type 1 group M subtype B, UniProt Q73372); assay type: binding; settings: biotinylated peptide
recombinant ADA gp41 = assay: SPR binding of HR-2 peptide to immobilized recombinant gp41; parameters: species or system HIV ADA
Description: FIGS. 16A–16F show constitutive binding of HR-2 peptides to immobilized gp41 and CD4 induced binding to gp140. FIGS. 16A and 16B. Binding of DP178 (12.5 to 100 μg/ml) to immobilized ADA gp41 and CD4-gp140 (FIG. 16B) surfaces. FIGS. 16C and 16D. […] FIGS. 16E and 16F. Scatchard plots of RU vs RU/C for DP178 binding to gp41 (FIG. 16E) and to CD4-gp140 (FIG. 16F). Data are representative of 2 separate experiments.
Binding of HR-2 peptide to recombinant gp41. To directly determine if HR-2 peptides can constitutively bind to purified gp41, recombinant ADA gp41 was immobilized to a sensor surface and the binding of HR-2 peptide, DP178, determined. […] To compare the binding of DP178 HR-2 peptide to recombinant gp41 versus HIV 89.6 gp140-sCD4 complex, the equilibrium binding contants (Keq) of HR-2 binding to both were measured. While the Keq of DP178 binding to recombinant gp41 was weak at 26.7 μM (FIG. 16E), the Keq of DP178 binding to sCD4-gp140 was 10 fold stronger at 1.7 μM (FIG. 16F).

[2] = tested on: sCD4-gp140 (HIV 89.6 gp140); assay: SPR binding of HR-2 peptides to sCD4-gp140 complex
Description: SPR biosensor measurements were determined on a BIACORE 3000 (BIACORE Inc., Uppsala, Sweden) instrument. […] Binding of proteins and peptides was monitored in real-time at 25° C. and with a continuous flow of PBS, pH 7.4 at […]. Analyte (proteins and peptides) were removed and the sensor surfaces were regenerated following each cycle of binding by single or duplicate […] of regeneration solution (10 mM glycine-HCl, pH 2.5 or 10 mM NaOH).
All analyses were performed using the non-linear fit method of O'Shannessy et al. (O'Shannessy et al, Anal. Biochem. 205:132–136 (1992)) and the BIAevaluation 3.0 software (BIACORE Inc). Rate and equilibrium constants were derived from curve fitting to the Langmuir equation for a simple bimolecular interaction (A+B=AB).
A blank chip served as an in-line reference surface for subtraction of non-specific binding and bulk responses.
Surface Plasmon Resonance Biosensor Measurements. SPR biosensor measurements were determined on a BIACORE 3000 (BIACORE Inc., Uppsala, Sweden) instrument. […] A blank in-line reference surface (activated and de-activated for amine coupling) was used to subtract non-specific or bulk responses. Binding of proteins and peptides (biotinylated or free DP178, T649Q26L, DP178-scrambled) was monitored in real-time at 25° C. with a continuous flow of PBS (150 mM NaCl, 0.005% surfactant p20), pH 7.4 at 10–30 μl/min. Analyte (proteins and peptides) were removed and the sensor surfaces were regenerated following each cycle of binding by single or duplicate 5–10 μl pulses of regeneration solution (10 mM glycine-HCl, pH 2.5 or 10 mM NaOH).

cleaved HIV 89.6 gp140 = cleaved HIV 89.6 gp140 (Human immunodeficiency virus type 1 group M subtype B, UniProt Q73372); assay type: binding; settings: no sCD4
HIV-1 Env 89.6 gp120 = HIV-1 Env 89.6 gp120 (Human immunodeficiency virus type 1 group M subtype B, UniProt Q73372); assay: biochemical; assay type: binding, HIV-1 89.6
[3] = Scatchard plot, read-out: Keq (equilibrium binding constant)

Chain of HIV-1 Env 89.6 gp120 (Q73372 32-508): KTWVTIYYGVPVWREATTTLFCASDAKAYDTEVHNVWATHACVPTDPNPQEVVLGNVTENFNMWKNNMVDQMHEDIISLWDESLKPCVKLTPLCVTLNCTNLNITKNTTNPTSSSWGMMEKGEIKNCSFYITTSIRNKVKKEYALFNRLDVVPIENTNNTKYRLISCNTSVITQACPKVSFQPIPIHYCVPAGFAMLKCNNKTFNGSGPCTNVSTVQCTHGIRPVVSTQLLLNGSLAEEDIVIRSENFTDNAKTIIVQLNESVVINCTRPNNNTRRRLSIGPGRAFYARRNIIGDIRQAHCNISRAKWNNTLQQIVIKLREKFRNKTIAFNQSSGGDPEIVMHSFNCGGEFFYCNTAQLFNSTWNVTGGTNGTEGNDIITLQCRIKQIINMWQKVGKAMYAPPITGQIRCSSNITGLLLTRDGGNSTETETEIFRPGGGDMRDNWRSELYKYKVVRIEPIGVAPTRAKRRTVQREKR
Chain of cleaved HIV 89.6 gp140 (Q73372 32-681): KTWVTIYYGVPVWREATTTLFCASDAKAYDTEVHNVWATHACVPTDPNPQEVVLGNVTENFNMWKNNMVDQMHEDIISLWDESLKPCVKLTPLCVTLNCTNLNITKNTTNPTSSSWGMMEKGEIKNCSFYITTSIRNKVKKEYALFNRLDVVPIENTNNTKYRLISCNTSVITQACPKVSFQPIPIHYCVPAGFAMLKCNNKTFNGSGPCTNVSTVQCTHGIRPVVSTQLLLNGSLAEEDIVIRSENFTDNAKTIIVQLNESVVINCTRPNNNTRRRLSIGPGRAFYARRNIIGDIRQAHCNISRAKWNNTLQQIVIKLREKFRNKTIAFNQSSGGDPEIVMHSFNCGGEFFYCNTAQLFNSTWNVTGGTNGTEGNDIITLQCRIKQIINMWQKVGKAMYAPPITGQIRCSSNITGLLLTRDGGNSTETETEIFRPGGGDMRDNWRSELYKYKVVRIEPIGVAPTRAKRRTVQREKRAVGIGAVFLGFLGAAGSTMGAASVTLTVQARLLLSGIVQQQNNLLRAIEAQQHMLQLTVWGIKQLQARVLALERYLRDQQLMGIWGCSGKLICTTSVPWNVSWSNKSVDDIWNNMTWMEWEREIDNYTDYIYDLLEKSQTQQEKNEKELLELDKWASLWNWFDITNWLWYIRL
Chain of HIV-1 89.6 gp120 (Q73372 32-508): as the sequence (Q73372 32-508) above
Chain of HIV 89.6 gp140 (Q73372 32-681): as the sequence (Q73372 32-681) above

enfuvirtide
binding to gp41-gp120(-sCD4) complex compared to gp41 (in words) [1]: upregulated; also recorded: higher binding
band density of precipitated gp120 (HIV-1 89.6 gp120): 1.0 ODunits/mm^2
immunoprecipitation of gp41 and gp140 (in words) (HIV 89.6 gp140): constitutively immunoprecipitated
binding to immobilized gp41 (in words) (recombinant ADA gp41; SPR): bound well
Kd (recombinant ADA gp41; [3]): 26700 nM
binding to sCD4-gp140 surface (in words) ([2]; SPR): much higher binding; also recorded: bound specifically
Kd [2, 3]: 1700 nM
kd (off-rate) ([2]; cleaved gp140 after sCD4): 0.0056 s⁻¹
Kd ([2]; sCD4-gp140 complexes, without CCR5-D1, read-out: Kd): 700 nM
Keq stronger than for recombinant gp41 ([2]; sCD4-gp140 vs gp41): 10 fold
Rm (maximal binding at equilibrium) ([2]; with sCD4): 320 RU
increase of Rm by soluble CD4 ([2]; with vs without sCD4): ~10 fold
Rm (maximal binding at equilibrium) (cleaved HIV 89.6 gp140): 35 RU
binding to cleaved gp140 (in words) (cleaved HIV 89.6 gp140): Low level binding
Kd (HIV-1 Env 89.6 gp120): 820 nM
faster component of the dissociation phase (HIV-1 Env 89.6 gp120; biphasic binding): 0.023 s⁻¹
slower component of the dissociation phase (HIV-1 Env 89.6 gp120; biphasic binding, predominant): 0.001 s⁻¹
binding to gp120 bound to CD4 or A32 (in words) (HIV-1 Env 89.6 gp120; peptide 50 μg/ml): specific induction of DP178 binding; also recorded: Marked induction
binding to gp120 bound to mAb T8 (in words) (HIV-1 Env 89.6 gp120; peptide 50 μg/ml): no differences were observed
